From patent US20260273074A1, “FERRITIN-TARGETING PROTACS AND METHODS OF INDUCING PYROPTOSIS” (Wisconsin Alumni Research Foundation, priority 2023, published 2026) come the findings set out here.

Series [1] can be described thus: Solubility in the ITC buffer. The class given is physicochemical. Particulars: 20 mM Tris-HCl pH 8.5, 130 mM NaCl, 0.05% DMSO.
The target in another series is T1, ferritin and VHL (Mus musculus, UniProt P09528+P29391+P40338).
T1 construct: endogenous in cells; host or cells: B16F10 (murine melanoma)
Put plainly: Co-immunoprecipitation of ferritin with anti-VHL antibody (ternary complex formation). The class given is cell-based, murine. The conditions noted are these: B16F10 cells, 5 μM, 2 h. How it is done:
Co-Immunoprecipitation assay: B16F10 cells were seeded in T75 cell culture flasks (2×10^6 cells per well) and cultured for 24 h. […] After incubation for 2 h, cells were washed with cold PBS and lysed on ice with IP lysis buffer (50 mM Tris-HCl, pH 7.4; 150 mM NaCl; 2 mM EDTA; 1% NP-40) containing phenylmethylsulfonyl fluoride (PMSF, 1 mM) and the phosphatase inhibitor cocktail for 30 min. The lysates were collected and centrifuged at 10,000 g for 10 minutes at 4° C. On the one hand, 10 μL of lysate supernatants were saved as the input samples. On the other hand, 25 μL of magnetic beads was added to each supernatant in microcentrifuge tubes, and the resulting mixtures were incubated at 4° C. with gentle rotation for 30 min. Next, the sample-containing tube was placed on a magnetic rack for 1 minute, and the supernatant was transferred into a new microcentrifuge tube placed on ice, serving as the precleared samples. The total proteins in the precleared samples were quantified through the BCA assay. Each precleared lysate was added an appropriate amount of mouse monoclonal IgG1 κ anti-VHL antibody (sc-135657, Santa Cruz Biotechnology) and then incubated at 4° C. for 2 hours with gentle rotation. After that, the pre-washed magnetic bead (equal to 25 μL of magnetic beads) was added to each sample. The resulting mixtures were incubated at room temperature for 1 h with gentle rotation. […]

The test system of another series is GSDME-N. Briefly: Western blot of cleaved N-terminal GSDME (GSDME-N) in B16F10 cells. It counts as cell-based, murine. The conditions noted are these: 20 h. How it is done: As for the determination of cleaved-GSDME and cleaved-caspase-3, B16F10 cells were seeded in 6-well culture plates (2×10^5 cells per well) and cultured for 24 h. Then the medium in the corresponding wells except the negative control was replaced with 1 mL of medium containing ferritin degraders, albumin nanoparticles, or the degrader with inhibitors at the indicated concentrations. Incubation for another 6 or 8 h was used to test the cleaved-caspase-3, while treatment for another 16 or 20 h was used to test cleaved-GSDME. The following procedures were the same as mentioned above.
Background: A western blot detects proteins with antibodies after separation by electrophoresis.

T1 sequence (P09528 2-182 limits assumed): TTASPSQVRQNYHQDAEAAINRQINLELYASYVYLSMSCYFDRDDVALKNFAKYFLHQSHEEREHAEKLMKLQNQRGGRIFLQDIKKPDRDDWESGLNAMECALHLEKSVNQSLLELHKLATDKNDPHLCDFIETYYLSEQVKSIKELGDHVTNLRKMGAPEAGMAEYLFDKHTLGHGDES
T1 sequence (P29391 2-183 limits assumed): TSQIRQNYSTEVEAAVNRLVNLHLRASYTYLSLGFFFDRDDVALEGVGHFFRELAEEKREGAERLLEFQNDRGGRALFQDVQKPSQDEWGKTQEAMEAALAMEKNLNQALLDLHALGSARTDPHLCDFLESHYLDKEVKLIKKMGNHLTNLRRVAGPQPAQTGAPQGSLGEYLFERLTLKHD
T1 sequence (P40338 whole entry): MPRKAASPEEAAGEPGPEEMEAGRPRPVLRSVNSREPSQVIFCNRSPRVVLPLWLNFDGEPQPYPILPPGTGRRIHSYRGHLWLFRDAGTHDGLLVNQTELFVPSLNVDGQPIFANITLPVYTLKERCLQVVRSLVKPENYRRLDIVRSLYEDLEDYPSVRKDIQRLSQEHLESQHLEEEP
T1 sequence (P62869 whole entry partner): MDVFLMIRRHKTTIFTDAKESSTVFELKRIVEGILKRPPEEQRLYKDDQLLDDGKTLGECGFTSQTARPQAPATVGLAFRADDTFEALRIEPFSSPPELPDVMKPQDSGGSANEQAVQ
T1 sequence (P83940 whole entry partner): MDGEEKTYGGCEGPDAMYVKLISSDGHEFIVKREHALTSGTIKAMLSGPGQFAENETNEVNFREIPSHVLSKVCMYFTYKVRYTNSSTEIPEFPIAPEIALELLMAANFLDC

Regarding `CCCCCCCCC=CCCCCCCCC(=O)NCCCC(=O)NC(C(=O)N1CC(O)CC1C(=O)NCc1ccc(-c2scnc2C)cc1)C(C)(C)C` (stereo not drawn) [DeFer-2], the “solubility in the ITC buffer” value in series [1] was “relatively low solubility”. Also, on ferritin and VHL, the “ferritin co-precipitated with VHL” value is “could induce ferritin co-precipitated with VHL”. Moreover, the “generation of GSDME-N” value with GSDME-N is reported as “enhance the generation of GSDME-N”.
